According to ChEMBL document CHEMBL5230100, “Novel quinazoline-based EGFR kinase inhibitors: A review focussing on SAR and molecular docking studies (2015-2019)” (Eur J Med Chem, 2020):
Each block holds one compound with its values, some of them ahead of it.

How the values were obtained:
[1] = tested on: MDA-MB-231; test: Antiproliferative activity against human MDA-MB-231 cells assessed as cell growth inhibition incubated for 48 hrs by MTT assay; type: functional, cell-based; conditions: MDA-MB-231, 48 h
[2] = tested on: HepG2; test: cells; type: functional, cell-based; conditions: Homo sapiens, HepG2, 48 h
Description: Antiproliferative activity against human HepG2 cells assessed as cell growth inhibition incubated for 48 hrs by MTT assay

[3] = tested on: SK-OV-3; test: cells; type: functional, cell-based; conditions: Homo sapiens, SK-OV-3, 48 h
Description: Antiproliferative activity against human SK-OV-3 cells assessed as cell growth inhibition incubated for 48 hrs by MTT assay

[4] = tested on: CNE; test: cells; type: functional, cell-based; conditions: Homo sapiens, 48 h
Description: Antiproliferative activity against human CNE cells assessed as cell growth inhibition incubated for 48 hrs by MTT assay

[5] = tested on: A549; test: Radiosensitizing activity against human A549 cells assessed as radiosensitization ratio by MTT assay; type: functional
[6] = tested on: A549; test: cells; type: functional, cell-based; conditions: Homo sapiens, A549, 48 h
Description: Antiproliferative activity against human A549 cells assessed as cell growth inhibition incubated for 48 hrs by MTT assay

[7] = target: T1, Epidermal growth factor receptor (Homo sapiens, UniProt P00533)
[8] = tested on: HT-29; test: Antiproliferative activity against human HT-29 cells assessed as cell growth inhibition incubated for 72 hrs under hypoxia condition by SRB assay; type: functional, cell-based; conditions: HT-29, 72 h
[9] = tested on: A549; test: Antiproliferative activity against human A549 cells assessed as cell growth inhibition incubated for 72 hrs under normoxia condition by SRB assay; type: functional, cell-based; conditions: A549, 72 h
[10] = tested on: A549; test: Antiproliferative activity against human A549 cells assessed as cell growth inhibition incubated for 72 hrs under hypoxia condition by SRB assay; type: functional, cell-based; conditions: A549, 72 h
[11] = tested on: HT-29; test: Antiproliferative activity against human HT-29 cells assessed as cell growth inhibition incubated for 72 hrs under normoxia condition by SRB assay; type: functional, cell-based; conditions: HT-29, 72 h
[12] = target: Caspase-3 (Homo sapiens) (UniProt P42574); test: Activation of caspase 3 (unknown origin); conditions: filed as activator
[13] = tested on: MDA-MB-231; test: Antiproliferative activity against human MDA-MB-231 cells assessed as cell growth inhibition incubated for 24 hrs by MTT assay; type: functional, cell-based; conditions: MDA-MB-231, 24 h
[14] = tested on: HT-29; test: Antiproliferative activity against human HT-29 cells assessed as cell growth inhibition incubated for 72 hrs by MTT assay; type: functional, cell-based
[15] = tested on: MDA-MB-231; test: cells; conditions: Homo sapiens, MDA-MB-231, 72 h
Description: Antiproliferative activity against human MDA-MB-231 cells assessed as cell growth inhibition incubated for 72 hrs by MTT assay

[16] = tested on: NCI-H460; test: Antiproliferative activity against human NCI-H460 cells assessed as cell growth inhibition incubated for 72 hrs by MTT assay; type: functional, cell-based; conditions: NCI-H460, 72 h
[17] = tested on: MRC5; test: Antiproliferative activity against human MRC5 cells assessed as cell growth inhibition incubated for 72 hrs by MTT assay; type: functional, cell-based; conditions: MRC5, 72 h
[18] = tested on: A549; test: cells; type: functional, cell-based; conditions: Homo sapiens, A549, 72 h
Description: Antiproliferative activity against human A549 cells assessed as cell growth inhibition incubated for 72 hrs by MTT assay

[19] = tested on: MCF7; test: Antiproliferative activity against human MCF7 cells assessed as cell growth inhibition incubated for 72 hrs by MTT assay; type: functional, cell-based; conditions: MCF7, 72 h
[20] = tested on: A549; test: Induction of apoptosis in human A549 cells assessed as late apoptotic cells measured after 48 hrs by Annexin V-FITC/ Propidium iodide staining based flow cytometry relative to control; type: functional
[21] = Half life in Sprague-Dawley rat plasma at 10 mg/kg, iv by LC-MS/MS analysis; type: ADME, organism-based; conditions: in vivo
[22] = Volume of distribution at steady state in Sprague-Dawley rat at 10 mg/kg, iv by LC-MS/MS analysis; type: ADME, organism-based; conditions: in vivo
[23] = AUC (0 to infinity) in Sprague-Dawley rat plasma at 10 mg/kg, iv by LC-MS/MS analysis; type: ADME, organism-based; set-up: dose 10 mg/kg, route iv
[24] = Half life in human liver microsomes by LC-MS/MS analysis; type: ADME
[25] = MRT (0 to 24 hrs) in Sprague-Dawley rat plasma at 10 mg/kg, iv by LC-MS/MS analysis; type: ADME, organism-based
[26] = AUClast in Sprague-Dawley rat plasma at 10 mg/kg, iv by LC-MS/MS analysis; type: ADME, organism-based; set-up: dose 10 mg/kg, route iv
[27] = tested on: A549; test: Anticancer activity against human A549 cells assessed as cell growth inhibition incubated for 24 hrs by MTT assay; type: functional, cell-based; conditions: A549, 24 h
[28] = target: T2, Receptor tyrosine-protein kinase erbB-2 (Homo sapiens, UniProt P04626)
[29] = target: T1, Epidermal growth factor receptor; test: Inhibition of human EGFR incubated for 1 hrs in presence of ATP by ELISA assay
[30] = cells; type: functional, cell-based; conditions: Homo sapiens, HBE, 72 h
Description: Antiproliferative activity against human HBE cells assessed as cell growth inhibition incubated for 72 hrs by MTT assay

[31] = tested on: HCC827; test: cells; type: functional, cell-based; conditions: Homo sapiens, HCC827, 72 h
Description: Antiproliferative activity against human HCC827 cells assessed as cell growth inhibition incubated for 72 hrs by MTT assay

[32] = tested on: A-431; test: cells; type: functional, cell-based; conditions: Homo sapiens, A-431, 72 h
Description: Antiproliferative activity against human A-431 cells assessed as cell growth inhibition incubated for 72 hrs by MTT assay

[33] = target: Epidermal growth factor receptor (Homo sapiens, UniProt P00533, L858R/T790M)
[34] = tested on: NCI-H1975; test: Antiproliferative activity against human NCI-H1975 cells assessed as cell growth inhibition incubated for 72 hrs by MTT assay; type: functional, cell-based; conditions: NCI-H1975, 72 h
[35] = tested on: PC-9; test: cells; type: functional, cell-based; conditions: Homo sapiens, PC-9, 72 h
Description: Antiproliferative activity against human PC-9 cells assessed as cell growth inhibition incubated for 72 hrs by SRB assay

[36] = tested on: A-431; test: Antiproliferative activity against human A-431 cells assessed as cell growth inhibition incubated for 72 hrs by SRB assay; type: functional, cell-based; conditions: A-431, 72 h
[37] = target: Epidermal growth factor receptor (Homo sapiens, UniProt P00533, 746-750DEL)
[38] = target: Epidermal growth factor receptor (Homo sapiens, UniProt P00533, T790M/L858R)
[39] = target: T1, Epidermal growth factor receptor; remark: listed apart in the source
[40] = tested on: HepG2; test: Antiproliferative activity against human HepG2 cells assessed as cell growth inhibition incubated for 72 hrs by MTT assay; type: functional, cell-based; conditions: HepG2, 72 h
[41] = tested on: MDA-MB-231; test: Cytotoxicity against human MDA-MB-231 assessed as radio sensitizing effect incubated for 24 hrs in presence of gamma irradiation by MTT assay; type: functional
[42] = tested on: MDA-MB-231; test: Anticancer activity against human MDA-MB-231 cells assessed as cell growth inhibition incubated for 24 hrs by MTT assay; type: functional, cell-based; conditions: MDA-MB-231, 24 h
[43] = target: T1, Epidermal growth factor receptor; test: Inhibition of EGFR (unknown origin) incubated for 1 hrs by ELISA assay
[44] = target: T2, Receptor tyrosine-protein kinase erbB-2; test: Inhibition of HER2 (unknown origin) incubated for 1 hrs by ELISA assay

T1 sequence (P00533 whole entry): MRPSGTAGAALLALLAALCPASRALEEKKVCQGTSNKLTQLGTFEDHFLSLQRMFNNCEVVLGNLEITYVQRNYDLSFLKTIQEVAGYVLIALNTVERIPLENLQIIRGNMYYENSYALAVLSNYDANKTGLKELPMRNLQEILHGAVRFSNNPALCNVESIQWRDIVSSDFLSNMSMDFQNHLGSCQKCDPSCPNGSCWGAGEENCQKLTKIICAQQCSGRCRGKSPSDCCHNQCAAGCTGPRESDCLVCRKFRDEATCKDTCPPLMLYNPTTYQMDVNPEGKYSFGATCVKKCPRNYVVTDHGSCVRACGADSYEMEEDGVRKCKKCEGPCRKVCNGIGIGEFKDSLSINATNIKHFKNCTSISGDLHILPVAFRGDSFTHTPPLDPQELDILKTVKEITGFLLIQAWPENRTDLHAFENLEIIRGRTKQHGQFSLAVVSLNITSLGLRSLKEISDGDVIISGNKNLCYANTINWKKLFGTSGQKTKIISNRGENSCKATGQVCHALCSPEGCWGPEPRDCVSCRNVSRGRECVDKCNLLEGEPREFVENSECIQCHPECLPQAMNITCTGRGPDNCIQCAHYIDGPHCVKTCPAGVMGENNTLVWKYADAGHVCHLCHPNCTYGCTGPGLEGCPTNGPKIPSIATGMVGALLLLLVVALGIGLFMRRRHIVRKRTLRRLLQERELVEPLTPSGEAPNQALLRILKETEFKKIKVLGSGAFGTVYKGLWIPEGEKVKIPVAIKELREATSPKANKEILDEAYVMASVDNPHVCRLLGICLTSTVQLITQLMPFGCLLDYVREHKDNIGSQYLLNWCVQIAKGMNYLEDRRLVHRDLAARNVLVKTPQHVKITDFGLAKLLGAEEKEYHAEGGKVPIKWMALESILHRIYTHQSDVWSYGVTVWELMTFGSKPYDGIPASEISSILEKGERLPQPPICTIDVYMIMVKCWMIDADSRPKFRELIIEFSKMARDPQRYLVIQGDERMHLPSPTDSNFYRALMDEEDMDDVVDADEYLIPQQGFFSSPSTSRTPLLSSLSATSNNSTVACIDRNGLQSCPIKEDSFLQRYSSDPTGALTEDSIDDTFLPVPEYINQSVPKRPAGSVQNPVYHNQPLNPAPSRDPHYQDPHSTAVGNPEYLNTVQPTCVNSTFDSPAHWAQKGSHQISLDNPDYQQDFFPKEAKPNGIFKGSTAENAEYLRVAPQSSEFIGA
T2 sequence (P04626 whole entry): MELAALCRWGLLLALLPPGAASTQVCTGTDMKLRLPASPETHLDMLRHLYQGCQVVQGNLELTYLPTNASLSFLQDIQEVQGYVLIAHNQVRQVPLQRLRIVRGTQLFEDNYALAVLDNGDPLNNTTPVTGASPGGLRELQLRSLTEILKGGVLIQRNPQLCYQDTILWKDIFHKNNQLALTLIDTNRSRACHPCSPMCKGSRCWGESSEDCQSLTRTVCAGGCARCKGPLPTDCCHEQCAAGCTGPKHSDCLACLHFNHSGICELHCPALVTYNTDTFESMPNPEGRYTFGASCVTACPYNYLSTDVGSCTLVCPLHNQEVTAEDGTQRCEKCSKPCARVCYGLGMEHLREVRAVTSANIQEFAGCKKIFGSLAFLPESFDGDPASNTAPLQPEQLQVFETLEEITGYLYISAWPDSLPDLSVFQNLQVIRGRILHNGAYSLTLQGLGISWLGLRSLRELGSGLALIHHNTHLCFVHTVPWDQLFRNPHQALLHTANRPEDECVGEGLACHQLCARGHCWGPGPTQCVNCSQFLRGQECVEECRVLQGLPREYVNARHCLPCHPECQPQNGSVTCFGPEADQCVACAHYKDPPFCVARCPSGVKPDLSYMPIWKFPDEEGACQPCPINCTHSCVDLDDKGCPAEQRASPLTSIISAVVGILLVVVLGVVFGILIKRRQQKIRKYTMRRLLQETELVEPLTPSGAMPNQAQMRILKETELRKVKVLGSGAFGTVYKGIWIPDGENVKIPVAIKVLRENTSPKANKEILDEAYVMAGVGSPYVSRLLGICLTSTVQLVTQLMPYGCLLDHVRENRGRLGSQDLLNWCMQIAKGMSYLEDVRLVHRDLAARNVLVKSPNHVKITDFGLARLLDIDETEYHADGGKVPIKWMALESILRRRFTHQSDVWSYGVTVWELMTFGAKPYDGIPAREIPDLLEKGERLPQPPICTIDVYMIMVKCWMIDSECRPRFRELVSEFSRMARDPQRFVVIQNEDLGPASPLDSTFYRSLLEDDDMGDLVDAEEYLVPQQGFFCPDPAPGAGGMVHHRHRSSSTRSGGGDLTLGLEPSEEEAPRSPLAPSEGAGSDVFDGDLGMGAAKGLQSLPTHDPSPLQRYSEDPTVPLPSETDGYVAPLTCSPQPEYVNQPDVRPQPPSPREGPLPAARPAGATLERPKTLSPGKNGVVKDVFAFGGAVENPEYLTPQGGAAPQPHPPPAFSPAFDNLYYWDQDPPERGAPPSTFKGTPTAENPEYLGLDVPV
Chain of Epidermal growth factor receptor (Homo sapiens, UniProt P00533, 746-750DEL) (P00533 whole entry, looked up, stated change not applied): as the sequence (P00533 whole entry) above
Chain of Caspase-3 (Homo sapiens) (P42574 29-175 limits assumed): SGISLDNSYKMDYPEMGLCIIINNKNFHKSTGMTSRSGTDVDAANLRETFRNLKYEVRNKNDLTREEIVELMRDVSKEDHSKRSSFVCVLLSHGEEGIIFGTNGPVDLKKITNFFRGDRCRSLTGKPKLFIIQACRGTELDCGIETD
Chain of Caspase-3 (Homo sapiens) (P42574 176-277 limits assumed): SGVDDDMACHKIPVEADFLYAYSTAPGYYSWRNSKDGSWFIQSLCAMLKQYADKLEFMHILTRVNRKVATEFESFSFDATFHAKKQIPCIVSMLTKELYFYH

IC50 [1]: 3200 nM | IC50 [2]: 34900 nM | IC50 [3]: 12500 nM | IC50 [4]: 2100 nM | IC50 [6]: 23300 nM
SMILES: Cc1ccc(Nc2ncnc3ccc(NC(=O)c4cc(OCc5ccccc5)c5c(c4)C(=O)c4cccc(OCc6ccccc6)c4C5=O)cc23)cc1
Ratio [5]: 1.88

IC50 [7]: 120 nM | IC50 [8]: 1350 nM | IC50 [9]: 1590 nM | IC50 [10]: 1090 nM | IC50 [11]: 2460 nM
SMILES: COc1cc2ncnc(Nc3ccc(OCCn4ccnc4[N+](=O)[O-])c(Cl)c3)c2cc1OCCCN1CCOCC1

Activity [12]: 546 pg/mL | IC50 [13]: 310 nM
SMILES: Cc1ccc(NC(=O)CSc2nc3cc4ccccc4cc3c(=O)n2-c2ccc(S(N)(=O)=O)cc2)cc1C

IC50 ([14]; Homo sapiens, HT-29, 72 h): 2500 nM | IC50 ([14]; ht-29): 3270 nM | IC50 [15]: 3810 nM | IC50 [16]: 2150 nM | IC50 [18]: 4470 nM | IC50 [19]: 2500 nM
SMILES: CNC(=O)c1cc(Oc2ccc(NC(=O)Nc3ccc(Cl)c(C(F)(F)F)c3)cc2)ccn1 [SORAFENIB]
IC50 [17]: 24100 nM

SMILES: CN(C)C/C=C/C(=O)Nc1cc2c(N3CCc4ccccc43)ncnc2cc1O[C@@H]1CCOC1
Activity [20]: 14.59%

t1/2 [21]: 3.85 h | Vdss [22]: 5.93 L/kg | AUC(0-inf) [23]: 7800 ng·h/mL | t1/2 [24]: 0.3752 h | MRT last [25]: 4.54 h | AUC(0-t) [26]: 7720 ng·h/mL
SMILES: COc1cc2ncnc(Nc3ccc(F)c(Cl)c3)c2cc1OCCCN1CCOCC1 [GEFITINIB]

IC50 [27]: 181 nM | IC50 [28]: 21 nM | IC50 [29]: 12 nM
SMILES: Cc1ccccc1NC(=O)CSc1nc2cc3ccccc3cc2c(=O)n1-c1ccc(S(N)(=O)=O)cc1

IC50 [30]: 34000 nM | IC50 [31]: 650 nM | IC50 [32]: 13400 nM | IC50 [18]: 32400 nM | IC50 [33]: 4.3 nM | IC50 [34]: 8700 nM
SMILES: C=CC(=O)Nc1ccccc1Nc1ncnc2cc(OC)c(OCCN3CCOCC3)cc12

IC50 [27]: 727 nM
SMILES: CCc1cccc(NC(=O)CSc2nc3cc4ccccc4cc3c(=O)n2-c2ccc(S(N)(=O)=O)cc2)c1

SMILES: C#Cc1cccc(Nc2ncnc3cc(OC)c(OCCCN4CCOCC4)cc23)c1
IC50 [35]: 100 nM | AUC(0-inf) [23]: 6150 ng·h/mL | MRT last [25]: 3.96 h | AUC(0-t) [26]: 6110 ng·h/mL | IC50 [36]: < 100 nM | IC50 [37]: 1.23 nM

SMILES: O=C(N/N=C/c1cnc(N2CCCC2)nc1)Nc1cc2c(Nc3ccc(F)c(Cl)c3)ncnc2cc1O[C@H]1CCOC1
IC50 [38]: 8.4 nM | IC50 [39]: 6.3 nM | IC50 [18]: 5900 nM | IC50 [19]: 2370 nM | IC50 [40]: 4630 nM

IC50 [42]: 500 nM | IC50 [43]: 640 nM | IC50 [44]: 1320 nM
SMILES: CN1C(=O)c2ccc(NC(=O)CSc3nc4cc5ccccc5cc4c(=O)n3-c3ccc(S(N)(=O)=O)cc3)cc2C1=O
Activity [41]: 0.18 µM
